Results from patent publication US20240293413A1, “COMPOUND AND METHOD FOR TREATING CHEMOTHERAPY-RELATED GASTROINTESTINAL SIDE EFFECTS” (ONQUALITY PHARMACEUTICALS CHINA LTD., priority 2021, published 2024).

What was measured:
Type in all cases: in vivo
[1] = system: diarrhea caused by the continuous administration of a chemotherapeutic agent in Balb/c mice; test: Examples 444-469 (Table 9): oral CDK inhibitor, diarrhea caused by continuous administration of a chemotherapeutic agent; details: CDK inhibitor oral 150 mg/kg once a day
Excerpt: Balb/c mice were fed for 1 week, and then divided into groups. The experiment was divided into a control group, a chemotherapeutic agent group, and a CDK inhibitor group, each of which comprised 10 mice, to perform the administration experiment, for which the administration dosage, mode, time and frequency were shown in Table 9. The control group: being intragastrically administered with the same solvent as that used in the CDK inhibitor group (the time was shown in Table 9), and then being injected/intragastrically administered with the same solvent as that used in the chemotherapeutic agent group (the administration mode was shown in Table 9): the chemotherapeutic agent group: being intragastrically administered with the same solvent as that used in the CDK inhibitor group (the time was shown in Table 9), and then being injected/intragastrically administered with the chemotherapeutic agent (the type, administration mode, dosage and duration time were shown in Table 9): the CDK inhibitor group: being intragastrically administered with the CDK inhibitor (the time was shown in Table 9), and then being administered with the chemotherapeutic agent (the type, administration mode, dosage and duration time were shown in Table 9).
The scoring of diarrhea can refer to the method of Akinobu Kurita (Cancer Chemother Pharmacol 2000: 46:211-20.), Grade 0: normal feces: Grade 1: mild diarrhea, the stools is slightly wet and soft: Grade 2: moderate diarrhea, loose stools and mild perianal contamination: Grade 3: severe diarrhea, watery stools and accompanied by severe perianal staining (see FIG. 1). It is regarded as effective remission when the diarrhea grading of mice in the CDK inhibitor group is reduced compared with the average diarrhea grading of mice in the chemotherapeutic agent group.
The diarrhea grading of mice was observed and recorded every day. At the end of the experiment, the number of mice in the CDK inhibitor group whose diarrhea grading was lower than that of mice in the chemotherapeutic agent group was recorded. Table 9 lists various animal experiment combinations of chemotherapeutic agents and CDK inhibitors, as well as the corresponding experimental results. (Relative remission rate %=the number of mice in the CDK inhibitor group whose diarrhea has been effectively relieved/the total number of mice in the CDK inhibitor group*100%. The establishment rate of diarrhea model in the chemotherapeutic agent group was 50%-80%, that is, about 5-8 of 10 mice developed diarrhea during the experiment, and there were cases of individual mice death or not developing diarrhea.)

[2] = system: Chemotherapeutic agent-caused diarrhea models of Balb/c mice; test: Examples 1-229 (Table 3): oral CDK inhibitor, relief of diarrhea caused by a chemotherapeutic agent;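 note: percent of treated mice whose diarrhea grade fell below chemotherapy-group average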
[3] = system: diarrhea caused by a chemotherapeutic agent in Balb/c mice; test: Examples 382-405 (Table 7): various administration modes of the CDK inhibitor, relief of diarrhea caused by a chemotherapeutic agent; details: cycle 8 days
Excerpt: Balb/c mice were fed for 1 week, and then divided into groups. The experiment was divided into a control group, a chemotherapeutic agent group, CDK inhibitor groups (including an oral administration group of a CDK inhibitor, an intraperitoneal injection group of a CDK inhibitor, an intramuscular injection group of a CDK inhibitor, a local administration group of a CDK inhibitor), each of which comprised 10 mice, to perform the administration experiment, for which the administration dosage, mode, time and frequency were shown in Table 7. The control group: being administered with the same solvent as that used in the CDK inhibitor group (the time and mode were shown in Table 7), and then being injected/intragastrically administered with the same solvent as that used in the chemotherapeutic agent group (the administration mode was shown in Table 7): the chemotherapeutic agent group: being administered with the same solvent as that used in the CDK inhibitor group (the time and mode were shown in Table 7), and then being injected/intragastrically administered with the chemotherapeutic agent (the type, administration mode and dosage were shown in Table 7): the oral administration group of the CDK inhibitor: being intragastrically administered with the CDK inhibitor (the time was shown in Table 7), and then being administered with the chemotherapeutic agent (the mode and dosage were shown in Table 7): the intraperitoneal injection group of the CDK inhibitor: being intraperitoneally injected with the CDK inhibitor (the time was shown in Table 7), and then being administered with the chemotherapeutic agent (the mode and dosage were shown in Table 7): the intramuscular injection group of the CDK inhibitor: being intramuscularly injected with the CDK inhibitor (the time was shown in Table 7), and then being administered with the chemotherapeutic agent (the mode and dosage were shown in Table 7); and the local administration group of the CDK inhibitor: the hair on the abdomen of mice was shaved (about 2 cm*2 cm), being applied with the CDK inhibitor (the time was shown in Table 7), and then being administered with the chemotherapeutic agent (the mode and dosage were shown in Table 7).
The diarrhea grading of mice was observed and recorded every day.

CC(=O)c1c(C)c2cnc(Nc3ccc(N4CCNCC4)cn3)nc2n(C2CCCC2)c1=O [Palbociclib]
Relative remission rate ([1]; Examples 444-447 (one value printed; 4 h, 6 h, 8 h, 12 h before), Fluorouracil (5-Fu) intraperitoneal injection 70 mg/kg once a day, for 3 days, for 3 days, cycle 10 days): 70% | Relative remission rate ([1]; Examples 448-451 (one value printed; 4 h, 6 h, 8 h, 12 h before), Fluorouracil (5-Fu) intraperitoneal injection 70 mg/kg once a day, for 5 days, for 5 days, cycle 9 days): 60% | Relative remission rate ([1]; Examples 462-465 (one value given; 2 h, 4 h, 6 h, 8 h before), Capecitabine oral administration 1000 mg/kg (printed 100/0 wrapped) once a day, for 7 days, for 7 days, cycle 14 days): 0% | Relative remission rate ([1]; Examples 466-469 (one value given; 2 h, 4 h, 6 h, 8 h before), Capecitabine oral administration 1000 mg/kg (printed 100/0 wrapped) once a day, for 14 days, for 14 days, cycle 14 days): 10% | Relative remission rate (%) ([2]; Example 1, Fluorouracil (5-Fu) intraperitoneal injection 125 mg/kg single, CDK inhibitor oral 150 mg/kg single 0.5 h before, cycle 10 days): 20% | Relative remission rate (%) ([2]; Example 2, Fluorouracil (5-Fu) intraperitoneal injection 125 mg/kg single, CDK inhibitor oral 150 mg/kg single 1 h before, cycle 10 days): 20% | Relative remission rate (%) ([2]; Example 3, Fluorouracil (5-Fu) intraperitoneal injection 125 mg/kg single, CDK inhibitor oral 150 mg/kg single 2 h before, cycle 10 days): 30% | Relative remission rate (%) ([2]; Example 4, Fluorouracil (5-Fu) intraperitoneal injection 125 mg/kg single, CDK inhibitor oral 150 mg/kg single 3 h before, cycle 10 days): 40% | Relative remission rate (%) ([2]; Example 5, Fluorouracil (5-Fu) intraperitoneal injection 125 mg/kg single, CDK inhibitor oral 150 mg/kg single 4 h before, cycle 10 days): 40% | Relative remission rate (%) ([2]; Example 6, Fluorouracil (5-Fu) intraperitoneal injection 125 mg/kg single, CDK inhibitor oral 150 mg/kg single 5 h before, cycle 10 days): 50% | Relative remission rate (%) ([2]; Example 7, Fluorouracil (5-Fu) intraperitoneal injection 125 mg/kg single, CDK inhibitor oral 150 mg/kg single 6 h before, cycle 10 days): 50% | Relative remission rate (%) ([2]; Example 8, Fluorouracil (5-Fu) intraperitoneal injection 125 mg/kg single, CDK inhibitor oral 150 mg/kg single 7 h before, cycle 10 days): 60% | Relative remission rate (%) ([2]; Example 9, Fluorouracil (5-Fu) intraperitoneal injection 125 mg/kg single, CDK inhibitor oral 150 mg/kg single 8 h before, cycle 10 days): 60% | Relative remission rate (%) ([2]; Example 10, Fluorouracil (5-Fu) intraperitoneal injection 125 mg/kg single, CDK inhibitor oral 150 mg/kg single 9 h before, cycle 10 days): 50% | Relative remission rate (%) ([2]; Example 11, Fluorouracil (5-Fu) intraperitoneal injection 125 mg/kg single, CDK inhibitor oral 150 mg/kg single 10 h before, cycle 10 days): 60% | Relative remission rate (%) ([2]; Example 12, Fluorouracil (5-Fu) intraperitoneal injection 125 mg/kg single, CDK inhibitor oral 150 mg/kg single 11 h before, cycle 10 days): 70% | Relative remission rate (%) ([2]; Example 13, Fluorouracil (5-Fu) intraperitoneal injection 125 mg/kg single, CDK inhibitor oral 150 mg/kg single 12 h before, cycle 10 days): 80% | Relative remission rate (%) ([2]; Example 14, Fluorouracil (5-Fu) intraperitoneal injection 125 mg/kg single, CDK inhibitor oral 12.5 mg/kg single 13 h before, cycle 10 days): 40% | Relative remission rate (%) ([2]; Example 15, Fluorouracil (5-Fu) intraperitoneal injection 125 mg/kg single, CDK inhibitor oral 25 mg/kg single 13 h before, cycle 10 days): 80% | Relative remission rate (%) ([2]; Example 16, Fluorouracil (5-Fu) intraperitoneal injection 125 mg/kg single, CDK inhibitor oral 50 mg/kg single 13 h before, cycle 10 days): 60% | Relative remission rate (%) ([2]; Example 17, Fluorouracil (5-Fu) intraperitoneal injection 125 mg/kg single, CDK inhibitor oral 100 mg/kg single 13 h before, cycle 10 days): 80% | Relative remission rate (%) ([2]; Example 18, Fluorouracil (5-Fu) intraperitoneal injection 125 mg/kg single, CDK inhibitor oral 150 mg/kg single 13 h before, cycle 10 days): 80% | Relative remission rate (%) ([2]; Example 19, Fluorouracil (5-Fu) intraperitoneal injection 125 mg/kg single, CDK inhibitor oral 250 mg/kg single 13 h before, cycle 10 days): 60% | Relative remission rate (%) ([2]; Example 20, Fluorouracil (5-Fu) intraperitoneal injection 125 mg/kg single, CDK inhibitor oral 150 mg/kg single 14 h before, cycle 10 days): 70% | Relative remission rate (%) ([2]; Example 21, Fluorouracil (5-Fu) intraperitoneal injection 125 mg/kg single, CDK inhibitor oral 150 mg/kg single 16 h before, cycle 10 days): 60% | Relative remission rate (%) ([2]; Example 22, Fluorouracil (5-Fu) intraperitoneal injection 125 mg/kg single, CDK inhibitor oral 150 mg/kg single 18 h before, cycle 10 days): 60% | Relative remission rate (%) ([2]; Example 23, Fluorouracil (5-Fu) intraperitoneal injection 125 mg/kg single, CDK inhibitor oral 150 mg/kg single 20 h before, cycle 10 days): 50% | Relative remission rate (%) ([2]; Example 24, Fluorouracil (5-Fu) intraperitoneal injection 125 mg/kg single, CDK inhibitor oral 150 mg/kg single 22 h before, cycle 10 days): 40% | Relative remission rate (%) ([2]; Example 25, Fluorouracil (5-Fu) intraperitoneal injection 125 mg/kg single, CDK inhibitor oral 150 mg/kg single 24 h before, cycle 10 days): 40% | Relative remission rate (%) ([2]; Example 26, Fluorouracil (5-Fu) intraperitoneal injection 125 mg/kg single, CDK inhibitor oral 150 mg/kg single 48 h before, cycle 10 days): 0% | Relative remission rate (%) ([2]; Example 44, Fluorouracil (5-Fu) oral administration 250 mg/kg single, CDK inhibitor oral 125 mg/kg single 4 h before, cycle 10 days): 60% | Relative remission rate (%) ([2]; Example 88, Oxaliplatin intravenous injection 17.5 mg/kg single, CDK inhibitor oral 150 mg/kg single 6 h before, cycle 8 days): 50% | Relative remission rate (%) ([2]; Example 129, Irinotecan (CPT-11) intravenous injection 200 mg/kg single, CDK inhibitor oral 200 mg/kg single 14 h before, cycle 7 days): 60% | Relative remission rate (%) ([2]; Example 166, Docetaxel (DTX) intramuscular injection 20 mg/kg single, CDK inhibitor oral 150 mg/kg single 5 h before, cycle 8 days): 80% | Relative remission rate (%) ([2]; Example 228, Etoposide 60 mg/kg and Carboplatin 5 mg/kg intraperitoneal injection single, CDK inhibitor oral 150 mg/kg single, 12 h before, 10 days): 60% | Relative remission rate of other administration mode ([3]; Example 382, Docetaxel (DTX) intraperitoneal injection 10 mg/kg single, CDK inhibitor intraperitoneal injection 150 mg/kg single, 0.5 h before): 10% | Relative remission rate of oral administration ([3]; Example 382, Docetaxel (DTX) intraperitoneal injection 10 mg/kg single, CDK inhibitor oral 150 mg/kg single, 0.5 h before): 40% | Relative remission rate of other administration mode ([3]; Example 383, Docetaxel (DTX) intraperitoneal injection 10 mg/kg single, CDK inhibitor intraperitoneal injection 150 mg/kg single, 4 h before): 10% | Relative remission rate of oral administration ([3]; Example 383, Docetaxel (DTX) intraperitoneal injection 10 mg/kg single, CDK inhibitor oral 150 mg/kg single, 4 h before): 40% | Relative remission rate of other administration mode ([3]; Example 384, Docetaxel (DTX) intraperitoneal injection 10 mg/kg single, CDK inhibitor intraperitoneal injection 150 mg/kg single, 8 h before): 10% | Relative remission rate of oral administration ([3]; Example 384, Docetaxel (DTX) intraperitoneal injection 10 mg/kg single, CDK inhibitor oral 150 mg/kg single, 8 h before): 50% | Relative remission rate of other administration mode ([3]; Example 385, Docetaxel (DTX) intraperitoneal injection 10 mg/kg single, CDK inhibitor intraperitoneal injection 150 mg/kg single, 12 h before): 20% | Relative remission rate of oral administration ([3]; Example 385, Docetaxel (DTX) intraperitoneal injection 10 mg/kg single, CDK inhibitor oral 150 mg/kg single, 12 h before): 70% | Relative remission rate of other administration mode ([3]; Example 386, Docetaxel (DTX) intraperitoneal injection 10 mg/kg single, CDK inhibitor intraperitoneal injection 150 mg/kg single, 24 h before): 10% | Relative remission rate of oral administration ([3]; Example 386, Docetaxel (DTX) intraperitoneal injection 10 mg/kg single, CDK inhibitor oral 150 mg/kg single, 24 h before): 50% | Relative remission rate of other administration mode ([3]; Example 403, Gemcitabine (GEM) intravenous injection 120 mg/kg single, CDK inhibitor intravenous injection 200 mg/kg single, 12 h before): 20% | Relative remission rate of oral administration ([3]; Example 403, Gemcitabine (GEM) intravenous injection 120 mg/kg single, CDK inhibitor oral 200 mg/kg single, 12 h before): 60%
